Laboratory results from patent US20250144067A1, “PERSONALIZED STARVATION THERAPY FOR CANCER” (Faeth Therapeutics, Inc., priority 2021, published 2025).
Where a name gives a salt, the structure may show the parent alone. Read-outs that look alike come from different tables or passages of the source.

Legend:
[1] = system: NCI-H292 lung cancer cells; assay: FDA drug screening, complete media vs cholesterol-free media without statin (TABLE 1); format: cell-based, human
[2] = system: NCI-H292 lung cancer cells; assay: FDA drug screening, complete media vs cholesterol-free media with simvastatin (TABLE 2); format: cell-based, human
[3] = NCI-H292 cells, cholesterol-free media without statin
[4] = NCI-H292 cells, FDA drug library screen, cholesterol-free media with simvastatin 0.04 μM
[5] = NCI-H292 cells, FDA drug library screen, complete media
[6] = Complete minus Cholesterol-free, […]
[7] = Complete minus Cholesterol-free, greater than 0 enhanced anti-cancer activity, about 0 neutral, below 0 antagonists
[8] = NCI-H292 cells in cholesterol-free media without statin
[9] = NCI-H292 cells in complete media
[10] = NCI-H292 cells, cholesterol-free media with simvastatin 0.04 μM, cell growth value in FDA drug screen
[11] = NCI-H292 cells, complete media, cell growth value in FDA drug screen
[12] = complete media minus cholesterol-free media + simvastatin, >0 enhanced anti-cancer activity, about 0 neutral, <0 antagonist
[13] = complete vs cholesterol-free media, greater than 0 enhanced anti-cancer activity, about 0 neutral, below 0 antagonists
[14] = complete media vs cholesterol-free media + simvastatin (0.04 μM), >0 enhanced anti-cancer activity, about 0 neutral, <0 antagonist
[15] = Complete minus Cholesterol-free, greater than 0 enhanced anti-cancer activity, about 0 neutral, below 0 antagonist
[16] = NCI-H292 cells, FDA drug library screen, cholesterol-free media without statin
[17] = NCI-H292 cells, cholesterol-free media with simvastatin 0.04 μM, FDA drug library screen (TABLE 2)
[18] = NCI-H292 cells, complete media, FDA drug library screen (TABLE 2)

C=C1CC[C@@H]2[C@](C)(COC(=O)CCC(=O)[O-])[C@H](OC(=O)CCC(=O)O)CC[C@@]2(C)[C@@H]1/C=C/C1=CCOC1=O.[K+] [Kalii Dehydrographolidi Succinas]
Cholesterol-free [1, 3]: 1.388 | Complete ([1]; NCI-H292 cells, complete media): 1.081 | Difference ([1]; complete vs cholesterol-free media, […]): −0.31 | Cholesterol-free media + simvastatin (0.04 μM) [2, 4]: 0.8904 | Complete Media [2, 5]: 1.183 | Difference ([2]; complete media minus cholesterol-free media + simvastatin, […]): 0.29

C[C@H]1O[C@H](OC2[C@@H](O)[C@@H](O)C(O)[C@H](O)[C@H]2O)[C@@H](N)C[C@@H]1N=C(N)C(=O)O.Cl.O (some centres unmarked) [Kasugamycin (hydrochloride hydrate)]
Difference [1, 6]: −0.06 | Cholesterol-free ([1]; NCI-H292 cells, cholesterol-free media without statin, FDA drug library screen): 1.256 | Complete ([1]; NCI-H292 cells, complete media, FDA drug library screen): 1.194 | Cholesterol-free media + simvastatin (0.04 μM) [2, 4]: 1.288 | Difference ([2]; complete media vs cholesterol-free media + simvastatin (0.04 μM), […]): −0.14

O=C(c1ccc(F)cc1)C1CCN(CCn2c(=O)[nH]c3ccccc3c2=O)CC1 [Ketanserin]
Difference [1, 7]: −0.47 | Cholesterol-free [1, 8]: 1.183 | Complete [1, 9]: 0.7093 | Cholesterol-free media + simvastatin (0.04 μM) [2, 10]: 1.439 | Complete Media [2, 11]: 1.462 | Difference [2, 12]: 0.02

CC(=O)N1CCN(c2ccc(OCC3COC(Cn4ccnc4)(c4ccc(Cl)cc4Cl)O3)cc2)CC1 (centres unmarked) [Ketoconazole]
Cholesterol-free [1, 3]: 1.003 | Complete ([1]; NCI-H292 cells, complete media): 0.6148 | Difference [1, 13]: −0.39 | Cholesterol-free media + simvastatin (0.04 μM) [2, 4]: 0.2012 | Complete Media [2, 5]: 0.801 | Difference [2, 12]: 0.60

CC(C(=O)O)c1cccc(C(=O)c2ccccc2)c1 (centres unmarked) [Ketoprofen]
Cholesterol-free [1, 3]: 1.284 | Complete ([1]; NCI-H292 cells, complete media): 0.8938 | Difference [1, 13]: −0.39 | Cholesterol-free media + simvastatin (0.04 μM) [2, 10]: 0.9565 | Complete Media [2, 11]: 0.9752 | Difference [2, 12]: 0.02

NC(CO)(CO)CO.O=C(c1ccccc1)c1ccc2n1CCC2C(=O)O (centres unmarked) [Ketorolac (tromethamine salt)]
Cholesterol-free [1, 3]: 1.112 | Complete ([1]; NCI-H292 cells, complete media): 0.6871 | Difference [1, 13]: −0.42 | Cholesterol-free media + simvastatin (0.04 μM) ([2]; NCI-H292 cells, drug in cholesterol-free media with simvastatin 0.04 μM): 1.289 | Complete Media ([2]; NCI-H292 cells, drug in complete media): 1.116 | Difference [2, 14]: −0.17

N[C@@H](Cc1c[nH]c2ccc(O)cc12)C(=O)O [L-5-Hydroxytryptophan]
Difference [1, 15]: −0.10 | Cholesterol-free [1, 16]: 1.028 | Complete [1, 5]: 0.9245 | Cholesterol-free media + simvastatin (0.04 μM) [2, 4]: 1.408 | Complete Media [2, 5]: 1.327 | Difference [2, 14]: −0.08

C[C@](N)(Cc1ccc(O)c(O)c1)C(=O)O.O [L-(−)-α-Methyldopa (hydrate)]
Difference [1, 7]: −0.69 | Cholesterol-free [1, 8]: 1.665 | Complete [1, 9]: 0.973 | Cholesterol-free media + simvastatin (0.04 μM) ([2]; NCI-H292 cells, FDA library drug in cholesterol-free media with simvastatin 0.04 μM): 1.97 | Complete Media ([2]; NCI-H292 cells, FDA library drug in complete media): 1.117 | Difference [2, 14]: −0.85

Cl.N=C(N)NCCC[C@H](N)C(=O)O [L-Arginine (hydrochloride)]
Difference [1, 6]: −0.16 | Cholesterol-free [1, 16]: 1.414 | Complete [1, 5]: 1.256 | Cholesterol-free media + simvastatin (0.04 μM) [2, 17]: 0.9293 | Complete Media [2, 18]: 0.9241 | Difference ([2]; complete media minus cholesterol-free media + simvastatin (0.04 μM), […]): −0.01

N=C(N)NCCC[C@H](N)C(=O)O [L-Arginine]
Cholesterol-free [1]: 0.984 | Complete [1]: 1.115 | Difference [1]: 0.13 | Cholesterol-free media + simvastatin (0.04 μM) [2]: 1.189 | Complete Media [2]: 1.484 | Difference [2]: 0.29

O=C1O[C@H]([C@@H](O)CO)C(O)=C1O [L-Ascorbic acid (sodium salt)]
Difference [1, 15]: −0.14 | Cholesterol-free [1, 16]: 0.9664 | Complete [1, 5]: 0.8232 | Cholesterol-free media + simvastatin (0.04 μM) [2, 17]: 0.9802 | Complete Media [2, 18]: 0.9199 | Difference ([2]; complete media minus cholesterol-free media + simvastatin (0.04 μM), >0 enhanced anti-cancer activity, about 0 neutral, <0 antagonist): −0.06

O=C1O[C@H]([C@@H](O)CO)C(O)=C1O [L-Ascorbic acid]
Difference [1, 15]: −0.14 | Cholesterol-free [1, 16]: 1.001 | Complete [1, 5]: 0.8619 | Cholesterol-free media + simvastatin (0.04 μM) [2, 4]: 1.16 | Complete Media [2, 5]: 1.003 | Difference [2, 14]: −0.16

NC(=O)C[C@H](N)C(=O)O [L-Asparagine]
Difference ([1]; Complete minus Cholesterol-free, >0 enhanced anti-cancer activity, about 0 neutral, <0 antagonist): −0.27 | Cholesterol-free [1, 3]: 1.71 | Complete ([1]; NCI-H292 cells, complete media): 1.437 | Cholesterol-free media + simvastatin (0.04 μM) [2, 10]: 0.6588 | Complete Media [2, 11]: 0.704 | Difference [2, 12]: 0.05
